Conditions: subcutaneous 5 mg in sesame oil vs rectal 15 mg (Diastat); plasma over 8 hours; FIG. 1

SMILES: CN1C(=O)CN=C(c2ccccc2)c2cc(Cl)ccc21 [diazepam]
- rise of levels in blood, subcutaneous delivery compared with rectal delivery: rise more quickly than via rectal delivery

Reference: patent US20040077615A1, “Novel formulations for administering therapeutic lipophilic molecules” (priority 2000, published 2004)
